Experiment [1] relates to KBM5 cells. Nature of the experiment: response of KBM5 cells to STI-571 exposure. The class given is cell-based, human. As to the method:
(§1) The cells were cultured in Iscove's modified Dulbecco's medium supplemented with 10% fetal calf serum (Invitrogen Corp., Carlsbad, Calif.) at 37° C. in atmosphere of 5% CO2 in air.

The test system of experiment [2] is KBM7 cells. The experiment in a line: response of KBM7 cells to STI-571 exposure. It counts as cell-based, human. As to the method: as §1
The subject of experiment [3] is KBM5-STI^R cells (STI-571-resistant KBM5). Nature of the experiment: in vitro growth inhibition (MTS) assay, KBM5-STI^R. It counts as cell-based, human. Particulars: 3 day MTS assay, 72 h exposure, read-out: IC50 (drug concentration which causes 50% growth inhibition). (Tetrazolium assays rely on reduction of a dye to a coloured formazan, in cell work by metabolically active cells.)

Experiment [4] concerns KBM-5 cells. Nature of the experiment: in vitro growth inhibition (MTS) assay, KBM-5. Particulars: 3 day MTS assay, 72 h exposure, read-out: IC50 (drug concentration which causes 50% growth inhibition). The class given is cell-based, human. As to the method: (§2) β-L Oddc was evaluated using an in vitro growth inhibition (MTS) assay. The description of the cell lines used and the details of the MTS assay are described below.
(§3) Cell lines: Two human CML, Ph+, p210 Bcr-Abl expressing cell lines were used, namely, KBM-5 and KBM-7. KBM-5 was derived from a patient in the blastic phase of CML and was evaluated to be absent of normal c-ABL. KBM-7 was identified previously to be a human near-haploid cell line. These two cell lines were further described in the references below, now incorporated by reference:
as §1
(§4) Growth inhibition (MTS) assay: The in vitro growth inhibition effect of β-L Oddc on leukemic cells was determined by measuring MTS (CellTiter 96®Aqueous One Solution Reagent, Promega Corporation, WI) dye absorbance by living cells. Briefly, cells were seeded in triplicate in 96-well microtiter plates (Falcon, USA) at a concentration of 4×10^5 cells /ml. After exposure to the β-L Oddc for 72 h, 20 μl of MTS solution were added to each well, the plates were incubated for additional 4 h at 37° C., and absorbance at 490 nm was measured.

Experiment [5] relates to KBM-7 cells. Nature of the experiment: in vitro growth inhibition (MTS) assay, KBM-7. The class given is cell-based, human. Particulars: 3 day MTS assay, 72 h exposure, read-out: IC50 (drug concentration which causes 50% growth inhibition). Here is the method: as §2, §3, §1, §4
The test system of experiment [6] is KBM7-STI^R cells (STI-571-resistant KBM7). The experiment in a line: in vitro growth inhibition (MTS) assay, KBM7-STI^R. It counts as cell-based, human. The following applies: 3 day MTS assay, 72 h exposure, read-out: IC50 (drug concentration which causes 50% growth inhibition). Here is the method:
as §2, §3, §4

In experiment [7] the test system is chronic myeloid leukemia in blastic phase (CML-BP). The experiment in a line: preliminary multicenter study in patients with CML-BP. It counts as in vivo, human. Particulars: 8mg/m^2/day daily for 5 days, twenty one patients evaluable, 40 cycles, data not verified. As to the method: A preliminary study was conducted to investigate the activity of β-L Oddc in patients with chronic myeloid leukemia in blastic phase (CML-BP). The multicenter study was conducted using β-L Oddc 8mg/m^2/day daily for 5 days for patients with CML-BP who had received no prior chemotherapy for CML-BP. Patients who had received Gleevec therapy as sole prior therapy for CML-BP were also eligible. Twenty-six patients, 17 male, 26 performance score less than or equal to 2, median age 54 years (range 31-84) had been entered in the study to date. 13 (50%) patients received β-L Oddc as first therapy for CML-BP, 13 (50%) had failed prior Gleevec therapy for CML-BP. Response definitions are as follows: Complete hematologic response (CHR) requires normalization of peripheral counts and differentials with less than or equal to 5% marrow blasts for at least 4 weeks. Hematologic improvement (HI) is as with CHR but with persistence of thrombocytopenia less than 100×10^9/L and few immature peripheral cells. A partial hematologic response (PHR) is as per CHR, but allows persistence of, though less than or equal to 50% reduction of, palpable splenomegaly and thrombocytosis (platelets>450×10^9/L) or the presence of few immature peripheral cells. […]

SMILES strings stand for the structures. Where a name gives a salt, the structure may show the parent alone.

Regarding `Cc1ccc(NC(=O)c2ccc(CN3CCN(C)CC3)cc2)cc1Nc1nccc(-c2cccnc2)n1` [STI-571, imatinib mesylate], the “response to STI-571 exposure” value in experiment [1] is “G0/G1 cell cycle arrest”; in experiment [2] it was “apoptosis”.
In the case of `Nc1ccn([C@@H]2CO[C@H](CO)O2)c(=O)n1` [β-L Oddc, (−)-β-L-Dioxolane-Cytidine], the IC50 in experiment [3], in experiment [4], in experiment [5] and in experiment [6] was 500 to 1000 nM throughout. Also, in experiment [7], the “patients in whom some responses were observed” value was 4 patients.

For the origin of these results see US6645972B2, “Methods of treating leukemia” (Shire BioChem Inc., priority 2001, dated 2003).
